This is an account of results in patent US7109200B2, “Carbamate derivatives, process for producing the same and use thereof” (Takeda Pharmaceutical Company Limited, priority 2000, dated 2006).

One experiment concerns Human normal plasma. Briefly: In vitro clotting time measurement: prothrombin time (PT). Type of experiment: biochemical. Particulars: PT 2-fold extending concentration (CT2), rabbit brain-derived tissue thromboplastin. On the procedure:
(2) In vitro Clotting Time Measurement
(2-1) Prothrombin Time (PT) Measurement:
A PT-test WAKO (WAKO PURE CHEMICAL) was employed together with an automatic coagulometer (STA compact DIAGNOSTICA STAGO). 97 μl of Human normal plasma (fresh human plasma, FFP, SEKISUI KAGAKU KOGYO) was combined with 3 μl of a test substance and pre-incubated at 37° C. for 4 minutes. 50 μl of the plasma described above was combined with 100 μl of rabbit brain-derived tissue thromboplastin solution and the time for the clotting was measured. The test substance was used after dissolving in dimethyl sulfoxide (DMSO). A concentration required for 2-fold prolongation of the clotting time was calculated based on the clotting time observed when DMSO was added instead of the test substance.

The target in the next experiment is human FXa (Homo sapiens, UniProt P00742). Put plainly: Human activated coagulation factor X (FXa) inhibiting activity. In kind it is biochemical. Particulars: substrate S-2765, 37° C., absorbance at 405 nm. On the procedure: (1) Human Activated Coagulation Factor X (FXa) Inhibiting Activity
Sequence of human FXa (P00742 235-488 limits assumed): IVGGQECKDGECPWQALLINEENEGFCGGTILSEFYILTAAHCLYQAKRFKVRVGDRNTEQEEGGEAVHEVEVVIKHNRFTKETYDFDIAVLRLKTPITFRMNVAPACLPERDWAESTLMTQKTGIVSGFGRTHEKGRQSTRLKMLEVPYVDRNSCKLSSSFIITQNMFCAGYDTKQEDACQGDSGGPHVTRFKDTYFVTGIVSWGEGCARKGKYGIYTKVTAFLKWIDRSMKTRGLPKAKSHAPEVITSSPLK
Sequence of human FXa (P00742 41-179 partner limits assumed): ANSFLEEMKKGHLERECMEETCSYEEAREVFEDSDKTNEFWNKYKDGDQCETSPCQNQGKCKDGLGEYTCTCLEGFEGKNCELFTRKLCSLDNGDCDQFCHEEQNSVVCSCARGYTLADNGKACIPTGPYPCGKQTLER
Method: A cuvette was charged with 225 μl of 0.05 M tris buffer (pH 8.3) containing 0.145 M sodium chloride and 2 mM calcium chloride, 5 μl of a sample (test compound dissolved in dimethyl sulfoxide) and 10 μl of human FXa (0.3 unit/ml), which were reacted at 37° C. for 10 minutes and then combined with 10 μl of a substrate (3 mM, S-2765) and further reacted at 37° C. for 10 minutes. Then the reaction was terminated by adding 25 μl of 50% aqueous acetic acid, and the change in the absorbance at 405 nm was determined using a spectrophotometer to calculate the concentration at which the FXa effect was inhibited by 50% (IC50).

The IC50 is the concentration that gives 50% inhibition. Read a high IC50 as weaker potency.

Take `CCOC(=O)NC1(CN2CCN(S(=O)(=O)c3ccc4cc(Cl)ccc4c3)CC2=O)CCN(c2ccncc2)CC1` [Example 1, 4-(6-Chloronaphthalene-2-sulfonyl)-1-[4-ethoxycarbonylamino-1-(4-pyridyl)-4-piperidylmethyl]-2-piperazinone]: the “PT CT2” value in the experiment on Human normal plasma turned out to be 0.27 µM. Moreover, on human FXa, it took 4.6 nM to reach half-maximal inhibition (IC50).
